Data as given in patent US7811797B2, “α-isomaltosylglucosaccharide-forming enzyme, process and uses of the same” (Kabushiki Kaisha Hayashibara Seibutsu Kagaku Kenkyujo, priority 2000, dated 2010).

Tests used:
[1] = Thermostability of aqueous cyclotetrasaccharide solution; assay type: physicochemical; details: 10% (w/v) aqueous solution, 120° C.; for Purity (%) after heating: HPLC
Method: After the heating, the aqueous solution was cooled under atmospheric conditions and measured for coloration degree and determined for purity on HPLC. The coloration degree was evaluated based on the absorbance in a cell with a 1-cm light pass at a wavelength of 480 nm.

[2] = tested on: α-isomaltosylglucosaccharide-forming enzyme; assay: Transfer-acceptor specificity, Enzyme of Strain C9; assay type: biochemical, Bacillus globisporus C9; details: acceptor 1.6%, PINE-DEX #100 donor 4%, one unit/g donor, 30° C., pH 6.0, 24 hours
Summary of the method: (§1)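 Each candidate acceptor at 1.6% was combined with 4% partial starch hydrolysate donor and 1 unit/g donor (d.s.b.) of purified enzyme. Incubation ran 24 h at 30 °C, pH 6.0 for the C9, C11 and N75 enzymes and pH 8.4 for A19. Transfer products were detected by GLC for mono- and disaccharide acceptors and HPLC for trisaccharide acceptors.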

[3] = tested on: α-isomaltosylglucosaccharide-forming enzyme; assay: Transfer-acceptor specificity, Enzyme of Strain N75; assay type: biochemical, Bacillus globisporus N75; details: acceptor 1.6%, PINE-DEX #100 donor 4%, one unit/g donor, 30° C., pH 6.0, 24 hours
Summary of the method: as §1

[4] = tested on: α-isomaltosylglucosaccharide-forming enzyme; assay: Transfer-acceptor specificity, Enzyme of Strain C11; assay type: biochemical, Bacillus globisporus C11; details: acceptor 1.6%, PINE-DEX #100 donor 4%, one unit/g donor, 30° C., pH 6.0, 24 hours
[5] = tested on: α-isomaltosylglucosaccharide-forming enzyme; assay: Action on saccharides (substrates), Enzyme of Strain C9; assay type: biochemical, Bacillus globisporus C9; parameters: key: −: it showed no change; +: it showed a slight reduction of the color spot of the substrate and the formation of other reaction product; ++: it showed a high reduction of the color spot of the substrate and the formation of other reaction product; +++: it showed a substantial disappearance of the substrate spot and the formation of other reaction product; details: two units/g substrate, substrate 2% (w/v), 30° C., pH 6.0, 24 hours, TLC
Summary of the method: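 Purified enzyme from each strain was added at 2 units/g substrate to each of 24 saccharides at 2% (w/v). Incubation ran 24 h at 30° C, pH 6.0, or pH 8.4 for the A19 enzyme. TLC compared reaction mixtures before and after incubation to show whether each substrate was acted on.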

[6] = tested on: Small intestinal mucosal enzyme; assay: Digestion test in vitro, small intestinal mucosal enzyme

SMILES | Coloration degree (A480 nm) ([1]; heating time 0 min) | Purity (%) after heating ([1]; heating time 0 min) | Coloration degree (A480 nm) ([1]; heating time 30 min) | Purity (%) after heating ([1]; heating time 30 min) | Coloration degree (A480 nm) ([1]; heating time 60 min) | Purity (%) after heating ([1]; heating time 60 min) | Coloration degree (A480 nm) ([1]; heating time 90 min) | Purity (%) after heating ([1]; heating time 90 min) | Product of transferring reaction, Enzyme of Strain C9 [2] | Product of transferring reaction, Enzyme of Strain N75 [3] | Product of transferring reaction, Enzyme of Strain C11 [4] | Enzymatic action, Enzyme of Strain C9 [5] | Decomposition percentage (%) by digestive enzyme [6]
OCC1OC2OCC3O[C@H](O[C@H]4C(O)C(CO)OC(OCC5O[C@H](O[C@@H](C1O)C2O)C(O)C(O)[C@@H]5O)C4O)C(O)C(O)[C@@H]3O (stereo partly drawn) [Cyclotetrasaccharide, cyclo{→6)-α-D-glucopyranosyl-(1→3)-α-D-glucopyranosyl-(1→6)-α-D-glucopyranosyl-(1→3)-α-D-glucopyransoyl-(1→}] | 0.00 A480 nm | 100% | 0.00 A480 nm | 100% | 0.00 A480 nm | 100% | 0.00 A480 nm | 100% |  |  |  |  | 
OC[C@@H](O)[C@@H](O[C@H]1O[C@H](CO)[C@@H](O)[C@H](O)[C@H]1O)[C@H](O)[C@@H](O)CO [Maltitol, reference compound] |  |  |  |  |  |  |  |  | ++ (a saccharide-transferred product was detected in an amount over ten percent through transfer reaction to acceptor) | ++ (a saccharide-transferred product was detected in an amount over ten percent through transfer reaction to acceptor) | ++ (a saccharide-transferred product was detected in an amount over ten percent through transfer reaction to acceptor) | − | 4.0%
